Where “and” joins values, the source holds several entries; their conditions need not be identical. Identical values can stand only once. Entries after “also recorded” stand apart in the source; their conditions may differ.
Columns and labels:
[1] = system: castrate Sprague-Dawley rats; assay: Duration of activity after a single subcutaneous injection (ventral prostate weight over weeks, AUC); assay type: in vivo; settings: for Long-term androgenic activity (ventral prostate weight over time), in words / AUC of ventral prostate weight (FIG. 5) / AUC of ventral prostate weight (FIG. 15): single subcutaneous injection; for AUC of ventral prostate weight (FIG. 5): n=5
Experimental: Immature (about 21-day-old) Sprague-Dawley rats were orchidectomized under anesthesia, and randomly assignee to groups of ten animals for each dose level of the active undergoing testing. Each active was administered by subcutaneous injection each day for seven days beginning on the date of the orchidectomy. The animals were sacrificed 24 hours after the last dose, and the ventral prostate and seminal vesicles were excised, cleaned of fat and connective tissue, blotted on moist filter paper and weighed to the nearest 0.1 mg. Regression analysis was performed by conventional methods using a PROPHET data management system. Ventral prostate weight was used as the endpoint because it is the sensitive organ to androgenic stimulation.
Except for testosterone enanthate, each active was formulated in two different carriers: (1) an aqueous suspension and (2) in sesame oil. Testosterone enanthate was formulated using the sesame oil carrier only, because it exists as a liquid at room temperature and could not therefore be formulated as an aqueous suspension.
(§1) The carrier used to provide the aqueous suspension was formulated as follows: 1 g benzyl alcohol, 0.5 g sodium carboxylethyl cellulose 50, 0.376 g disodium hydrogen phosphate dihydrate, 1.495 g sodium dihydrogen phosphate dihydrate, with water for injection (WFI) being added to bring volume of the carrier up to 100 ml.
Each formulation was prepared at a concentration of 0.6 mg/0.2 ml.
(§2) Immature (about 21-day-old) Sprague-Dawley rats were orchidectomized under anesthesia, and randomly assignee to groups of 40 or more. Animals received a single subcutaneous injection of 0.6 mg of each ester in 0.2 ml of an aqueous suspending carrier and/or oily carrier (10% ethanol/90% sesame oil or ethyl oleate) on the date of the orchidectomy. In cases where the ester was not solid at room temperature, 10% ethanol/sesame oil or ethyl oleate was used as the carrier. In this example, the carrier used to provide the aqueous suspension was formulated as follows: 1 g benzyl alcohol, 0.5 g sodium carboxylethyl cellulose 50, 0.376 g disodium hydrogen phosphate dihydrate, 1.495 g sodium dihydrogen phosphate dihydrate, with water for injection (WFI) being added to bring volume of the carrier up to 100 ml.
Five animals from each group were sacrificed at weekly or biweekly intervals, and the ventral prostate and seminal vesicles were excised, cleaned of fat and connective tissue, blotted on moist filter paper and weighed to the nearest 0.1 mg.
Ventral prostate weight was used as the endpoint because it is the sensitive organ to androgenic stimulation. Regression analysis was performed by conventional methods using the PROPHET data management system previously identified.
Immature (about 21-day-old) Sprague-Dawley rats were orchidectomized under anesthesia, and randomly assignee to groups of 40 or more. Animals received a single subcutaneous injection of 0.6 mg of the undecanoate in 0.2 ml of an aqueous suspending carrier and/or oily carrier (10% ethanol/90% sesame oil containing 5 mg/ml chlorobutanol as a preservative, or ethyloleate) on the date of the orchidectomy. The enanthate ester was formulated using the 10% ethanol/sesame oil or ethyloleate carrier as a first standard, with the 10% ethanol/sesame oil carrier used as a second standard.
as §1, with “In this example, the” for “The”

[2] = system: castrate Sprague-Dawley rats; assay: Hershberger test, subcutaneous administration for seven days (ventral prostate weight); assay type: in vivo; settings: for Androgenic activity Potency Ratio, subcutaneous: subcutaneous daily for 7 days in 10% EtOH/sesame oil, testosterone subcutaneous standard = 1.0 (assigned), ventral prostate weight; for Androgenic Potency of Corresponding Alcohol: ventral prostate weight assay following subcutaneous administration, alcohol of G = 1.0 (assigned), value is for the free alcohol of the listed ester
Experimental: (§3) Immature (about 21-day-old) Sprague-Dawley rats were orchidectomized under anesthesia, and randomly assignee to groups of ten animals for each dose level of the active undergoing testing. Each active was dissolved in 10% ethanol/sesame oil and administered by gavage (oral) or subcutaneous injection each day for seven days beginning on the date of the orchidectomy. The animals were sacrificed 24 hours after the last dose, and the ventral prostate and seminal vesicles were excised, cleaned of fat and connective tissue, blotted on moist filter paper and weighed to the nearest 0.1 mg. Regression analysis was performed by conventional methods using a PROPHET data management system. Ventral prostate weight was used as the endpoint because it is the sensitive organ to androgenic stimulation.
as §3, with “by” for “by gavage (oral) or”, “mg. See, e.g., Hershberger, L. et al, Myotrophic Activity of 19-nortestosterone And Other Steroids Determined By Modified Levator And Muscle Method, Proc. Soc. Exptl. Biol. Med. 83 175-180 (1953).” for “mg.”, “system. See, e.g., Bliss, C., The Statistics of Bioassay (Academic Press, New York, 1952); Hollister, C., Nucleic Acids Res. 16 1873-75 (1988).” for “system.”

[3] = Serum levels of the free alcohol after a single subcutaneous injection; assay type: in vivo, Sprague-Dawley rats; settings: single subcutaneous injection 0.6 mg in aqueous carrier, 10-week observation period
Experimental: as §2

[4] = system: castrate Sprague-Dawley rats; assay: Hershberger test, oral administration for seven days (ventral prostate weight); assay type: in vivo
Experimental: as §3, with “(oral)” for “(oral) or subcutaneous injection”, “mg. See, e.g., Hershberger, L. et al, Myotrophic Activity of 19-nortestosterone And Other Steroids Determined By Modified Levator And Muscle Method, Proc. Soc. Exptl. Biol. Med. 83 175-180 (1953).” for “mg.”, “See, e.g., Bliss, C., The Statistics of Bioassay (Academic Press, New York, 1952); Hollister, C., Nucleic Acids Res. 16 1873-75 (1988). […]” for “Ventral prostate weight was used as the endpoint because it is the sensitive organ to androgenic stimulation.”
Immature (about 21-day-old) Sprague-Dawley rats were orchidectomized under anesthesia, and randomly assignee to groups of ten animals for each dose level of the active undergoing testing. […] See, e.g., Hershberger, L. et al, Myotrophic Activity of 19-nortestosterone And Other Steroids Determined By Modified Levator And Muscle Method, Proc. Soc. […]

[5] = 0.6 mg, ASV (aqueous suspending vehicle)

CCCCC1CCC(C(=O)O[C@H]2CC[C@H]3[C@H]4[C@H]([C@H](C)C[C@]23C)[C@H]2CCC(=O)C=C2C[C@H]4C)CC1 (stereo partly drawn) [CDB-4386]
Long-term androgenic activity (ventral prostate weight over time), in words [1]: inactive; also recorded: relatively low activity

C[C@]12CC[C@H]3[C@@H](CCC4=CC(=O)CC[C@@]43C)[C@@H]1CC[C@@H]2O [CDB-111C, testosterone]
Androgenic activity Potency Ratio, subcutaneous [2]: 1.00

CCCCC1CCC(C(=O)OC2CCCC3C4C(C)CC5=CC(=O)CCC5(C)C4CCC23C)CC1 [D, 7α-Methyl-D-homo-testosterone-17β-bucyclate]
Androgenic Potency of Corresponding Alcohol [2]: 36.4-61.7^3

CCCC[C@H]1CC[C@H](C(=O)O[C@H]2CC[C@H]3[C@H]4[C@H]([C@@H](C)C[C@]23C)[C@H]2CCC(=O)C=C2C[C@H]4C)CC1 (relative stereo) [CDB-4386A, 7α,11β-Dimethyl-17β-hydroxy-4-estren-3-one 17β-trans-4-n-butylcyclohexane carboxylate]
Androgenic Potency of Corresponding Alcohol [2]: 19.3
Long-term androgenic activity (ventral prostate weight over time), in words [1]: most dramatic increase and maintenance of ventral prostate weight; also recorded: greatest AUC over the 10-week period
AUC of ventral prostate weight (FIG. 5) [1, 5]: 1390
AUC of ventral prostate weight (FIG. 5) ([1]; 0.6 mg, S.O. (sesame oil)): 157
Serum levels of the free alcohol (7α,11β-dimethyl-19-nortestosterone) [3]: highest levels of the free alcohol

CCCCC1CCC(C(=O)O[C@H]2CC[C@H]3[C@@H]4CCC5=CC(=O)CC[C@]5(C)[C@H]4CC[C@]23C)CC1 (stereo partly drawn) [CDB-1781a, Testosterone bucyclate]
Androgenic Potency of Corresponding Alcohol [2]: 1.0 (assigned)
Long-term androgenic activity (ventral prostate weight over time), in words [1]: significantly less
AUC of ventral prostate weight (FIG. 5) ([1]; 0.6 mg, S.O. (sesame oil)): 186
AUC of ventral prostate weight (FIG. 5) ([1]; 1.0 mg, ASV (aqueous suspending vehicle)): 683

CCCC[C@H]1CC[C@H](C(=O)O[C@H]2CC[C@H]3[C@H]4[C@H](CC[C@]23C)[C@H]2CCC(=O)C[C@@H]2C[C@H]4C)CC1 [B, 7α-Methyl-5α-dihydro-19-nortestosterone-17β-bucyclate]
Androgenic Potency of Corresponding Alcohol [2]: 1.2

CCCC[C@H]1CC[C@H](C(=O)O[C@H]2CC=C3[C@@H]4[C@H](C)CC5=CC(=O)CC[C@]5(C)[C@H]4CC[C@@]32C)CC1 [C, 7α-Methyl-14-dehydro-testosterone-17β-bucyclate]
Androgenic Potency of Corresponding Alcohol [2]: 61.1

CCCCCCC(=O)O[C@H]1CC[C@H]2[C@@H]3CCC4=CC(=O)CC[C@]4(C)[C@H]3CC[C@]12C [CDB-112E, testosterone enanthate]
AUC of ventral prostate weight (FIG. 15) ([1]; 0.6 mg, 10% EtOH/Sesame Oil, 10 week period, listed as CDB-112F): 559 mg-weeks and 559.28 mg-weeks
AUC of ventral prostate weight (FIG. 5) ([1]; 0.6 mg, S.O. (sesame oil)): 497

C[C@@H]1CC2=CC(=O)CC[C@@H]2[C@@H]2[C@@H]1[C@@H]1CC[C@H](O)[C@@]1(C)C[C@@H]2C [CDB-1321D, 7α,11β-Dimethyl-17β-hydroxy-4-estren-3-one]
AUC of ventral prostate weight (FIG. 5) [1, 5]: 460
AUC of ventral prostate weight (FIG. 5) ([1]; 0.6 mg, S.O. (sesame oil)): 166

CCCCCCCCCCC(=O)O[C@H]1CC[C@H]2[C@H]3[C@H]([C@@H](C)C[C@]12C)[C@H]1CCC(=O)C=C1C[C@H]3C [7α,11β-dimethyl-17β-hydroxyestr-4-en-3-one 17-undecanoate]
Androgenic activity Potency Ratio, oral ([4]; oral gavage daily for 7 days in 10% EtOH/sesame oil, methyltestosterone oral standard = 1.0 (assigned), ventral prostate weight): about twice that of methyltestosterone

CCCC[C@H]1CC[C@H](C(=O)O[C@H]2CC=C3[C@H]4[C@H](CC[C@@]32C)[C@H]2CCC(=O)C=C2C[C@H]4C)CC1 [CDB-4327A, 7α-Methyl-14-dehydro-19-nortestosterone-17β-bucyclate]
Long-term androgenic activity (ventral prostate weight over time), in words [1]: surprising stimulation of ventral prostate size over the entire 20-week observation period

CCCCCCCCCCC(=O)O[C@H]1CC[C@H]2[C@H]3[C@H]([C@@H](C)C[C@]12C)[C@H]1CCC(=O)C=C1C[C@H]3C [CDB-4521A, 7α,11β-dimethyl-17β-hydroxyestr-4-en-3-one 17-undecanoate]
Androgenic activity Potency Ratio, oral, aqueous suspending vehicle ([4]; oral gavage daily for 7 days in aqueous suspending vehicle (ASV), methyltestosterone in same vehicle = 1.0 (assigned)): 0.95
Androgenic activity Potency Ratio, subcutaneous [2]: 0.52
Long-term androgenic activity (ventral prostate weight over time), in words [1]: most dramatic increase and maintenance of ventral prostate weight
AUC of ventral prostate weight relative to testosterone enanthate in sesame oil ([1]; single subcutaneous injection 0.6 mg, active in aqueous vehicle, 10 week period): about 3 times
AUC of ventral prostate weight (FIG. 15) ([1]; 0.6 mg, 10% EtOH/Sesame Oil, 10 week period): 620 mg-weeks
AUC of ventral prostate weight (FIG. 15) ([1]; 0.6 mg, Aqueous Suspending Vehicle, 10 week period): 1817 mg-weeks

CCCC[C@H]1CC[C@H](C(=O)O[C@H]2CC[C@H]3[C@H]4[C@H](CC[C@]23C)[C@H]2CCC(=O)C=C2C[C@H]4C)CC1 [A, 7α-Methyl-19-nortestosterone-17β-bucyclate]
Androgenic Potency of Corresponding Alcohol [2]: 8.1^3
